Experimental data published in patent US9663533B2, “Thieno[3,2-C]pyridin-4(5H)-ones as BET inhibitors” (GlaxoSmithKline LLC, priority 2012, dated 2017).
Where a name gives a salt, the structure may show the parent alone.

These compounds were tested on Bromodomain BRD4, mutated proteins (BD1 or BD2) (assay: FP assay: affinity of the fluoroligand for mutated versus non-mutated binding domain). Details: single residue mutations in the acetyl lysine binding pocket.
Parameters: species or system Human
Procedure: (§1) Binding was assessed using a fluorescence polarisation binding assay. This utilises a 6 His purification tag at the N-terminal of the proteins as an epitope for an anti-6 His antibody labeled with Europium chelate (PerkinElmer AD0111) allowing binding of the Europium to the proteins which acts as the donor fluorophore. A small molecule, high affinity binder of the bromodomains BRD2, BRD3, BRD4 and BRDT has been labeled with Alexa Fluor647 (Reference Compound X) and this acts as the acceptor in the FRET pair.
The binding of the compounds of formula (I) to Bromodomain BRD4 was assessed using mutated proteins to detect differential binding to either Binding Domain 1 (BD1) or Binding Domain 2 (BD2) on the bromodomain. These single residue mutations in the acetyl lysine binding pocket greatly lower the affinity of the fluoroligand (Reference Compound X) for the mutated domain (>1000 fold selective for the non-mutated domain). Therefore in the final assay conditions, binding of the fluoroligand to the mutated domain cannot be detected and subsequently the assay is suitable to determine the binding of compounds to the single non-mutated bromodomain.
Protein Production: Recombinant Human Bromodomains [BRD4 (1-477) (Y97A) and (Y390A)] were expressed in E. coli cells (in pET15b vector) with a 6-His tag at the N-terminal. […]

Compound	Selectivity of the fluoroligand for the non-mutated domain over the mutated domain [fold]
COc1ccc2c(c1)C(c1ccc(Cl)cc1)=N[C@@H](CC(=O)NCCCCCNC(=O)CCCCCC1(C)/C(=C/C=C/C=C/C3=[N+](CCCCS(=O)(=O)O)c4ccc(S(=O)(=O)O)cc4C3(C)C)N(CCCCS(=O)(=O)[O-])c3ccc(S(=O)(=O)O)cc31)c1nnc(C)n1-2 (stereo partly drawn) [Reference Compound X]	> 1000

These compounds were tested on Bromodomains BRD2, BRD3, BRD4 and BRDT, mutated proteins (BD1 or BD2) (assay: TR-FRET assay: affinity of the fluoroligand for mutated versus non-mutated binding domain). Details: single residue mutations in the acetyl lysine binding pocket.
Parameters: species or system Human
Procedure: as §1, with “time resolved fluorescent resonance energy transfer” for “fluorescence polarisation”
The binding of the compounds of formula (I) to Bromodomains BRD2, BRD3, BRD4 and BRDT was assessed using mutated proteins to detect differential binding to either Binding Domain 1 (BD1) or Binding Domain 2 (BD2) on the bromodomain. These single residue mutations in the acetyl lysine binding pocket greatly lower the affinity of the fluoroligand (Reference Compound X) for the mutated domain (>1000 fold selective for the non-mutated domain). Therefore in the final assay conditions, binding of the fluoroligand to the mutated domain cannot be detected and subsequently the assay is suitable to determine the binding of compounds to the single non-mutated bromodomain. […]

Compound	Selectivity of the fluoroligand for the non-mutated domain over the mutated domain [fold]
COc1ccc2c(c1)C(c1ccc(Cl)cc1)=N[C@@H](CC(=O)NCCCCCNC(=O)CCCCCC1(C)/C(=C/C=C/C=C/C3=[N+](CCCCS(=O)(=O)O)c4ccc(S(=O)(=O)O)cc4C3(C)C)N(CCCCS(=O)(=O)[O-])c3ccc(S(=O)(=O)O)cc31)c1nnc(C)n1-2 (stereo partly drawn) [Reference Compound X]	> 1000

These compounds were tested on LPS induced IL-6 secretion from human whole blood (assay: Quantification of LPS induced IL-6 secretion from human whole blood). Details: LPS 200 ng/mL, 24 hours, MSD ELISA, read-out: pIC50, LPS induced IL-6 secretion (converted).
Format: cell-based
Description: Quantification of LPS Induced IL-6 Secretion from Human Whole Blood
Activation of monocytic cells by agonists of toll-like receptors such as bacterial lipopolysaccharide (LPS) leads to the activation of intracellular signaling pathways resulting in the production of key pro-inflammatory mediators including IL-6. Such pathways are widely considered to be central to the pathophysiology of a range of auto-immune and inflammatory disorders.
The impact of bromodomain inhibitors on IL-6 release was assessed in an LPS-stimulated human whole blood assay. Briefly, serial dilutions of test compounds were prepared in DMSO and 1 μL of the diluted compounds or vehicle (DMSO) was added to each well in a 96-well cell culture plate. Fresh blood was collected in heparinized tubes by venipuncture from volunteers with consent, and 130 uL/well was added in the culture plate already containing the compounds. The plates were then incubated for 30 min at 37° C. and 5% CO2 before the addition of 10 μl of 2.8 μg/mL LPS diluted in 1% BSA (LPS from Salmonella typhosa; Sigma L 6386 at a final concentration of 200 ng/mL). After further incubation for 24 hours at 37° C. and 5% CO2, 140 μl of PBS were added to each well. The plates were then sealed, shaken for 10 minutes and then centrifuged for 10 minutes at 2000 rpm. 100 μl of the supernatant were removed and IL-6 levels quantified using an MSD ELISA (MesoScale Discovery technology). Concentration response curves for each compound were generated and an IC50 values were calculated.

Compound	IC50 [µM]
Cn1cc(-c2ccnc(OCC3CCOCC3)c2)c2sc(CN3CCN(S(C)(=O)=O)CC3)cc2c1=O [Example 7, 5-methyl-2-((4-(methylsulphonyl)piperazin-1-yl)methyl)-7-(2-((tetrahydro-2H-pyran-4-yl)methoxy)pyridin-4-yl)thieno[3,2-c]pyridin-4(5H)-one]	≤ 10
C[C@@H]1CN(S(C)(=O)=O)CCN1Cc1cc2c(=O)n(C)cc(-c3ccncc3OCC3CC3)c2s1 [Example 168, (R)-7-(3-(cyclopropylmethoxy)pyridin-4-yl)-5-methyl-2-((2-methyl-4-(methylsulfonyl)piperazin-1-yl)methyl)thieno[3,2-c]pyridin-4(5H)-one]	≤ 10
CN1CCCN(Cc2cc3c(=O)n(C)cc(-c4cccc(OCc5ccccc5)c4)c3s2)CC1 [Example 40, 7-(3-(benzyloxy)phenyl)-5-methyl-2-((4-methyl-1,4-diazepan-1-yl)methyl)thieno[3,2-c]pyridin-4(5H)-one, Hydrochloride]	≤ 10
CC(Oc1cncc(-c2cn(C)c(=O)c3cc(CN4CCN(S(C)(=O)=O)CC4)sc23)c1)c1ccccn1 (racemic) [Example 3, (±)-5-methyl-2-((4-(methylsulphonyl)piperazin-1-yl)methyl)-7-(5-(1-(pyridin-2-yl)ethoxy)pyridin-3-yl)thieno[3,2-c]pyridin-4(5H)-one]	≤ 10

Further lines, results first:

IC50 [µM]	Compound
≤ 10	CCCC[C@@H]1CN(Cc2cc3c(=O)n(C)cc(-c4ccc(OC)c(OC)c4)c3s2)CCN1 [Example 97, (R)-2-((3-butylpiperazin-1-yl)methyl)-7-(3,4-dimethoxyphenyl)-5-methylthieno[3,2-c]pyridin-4(5H)-one]
≤ 10	CC(=O)Nc1cc(-c2cn(C)c(=O)c3cc(CN4CCN(S(C)(=O)=O)C[C@H]4C)sc23)ccn1 [Example 119, (R)-N-(4-(5-methyl-2-((2-methyl-4-(methylsulphonyl)piperazin-1-yl)methyl)-4-oxo-4,5-dihydrothieno[3,2-c]pyridin-7-yl)pyridin-2-yl)acetamide]
≤ 10	CC(Oc1cncc(-c2cn(C)c(=O)c3cc(CN4CCN(S(C)(=O)=O)CC4)sc23)c1)c1ccccc1 (stereo not drawn) [Example 1, 5-methyl-2-((4-(methylsulphonyl)piperazin-1-yl)methyl)-7-(5-(1-phenylethoxy)pyridin-3-yl)thieno[3,2-c]pyridin-4(5H)-one hydrochloride]
